From a compilation of properties of binary mixtures (doi:10.1016/j.molliq.2014.08.031)

Assay: xn = mol fraction of the nth substance listed
Conditions: 101 kPa

CCCC[n+]1ccn(C)c1.CS(=O)(=O)[O-] + O
Conditions	electrical conductivity [S/m]	viscosity [mPa·s]
298.15 K, x1 = 0.004	1.17	–
298.15 K, x1 = 0.008	2.08	–
298.15 K, x1 = 0.019	3.25	–
298.15 K, x2 = 0.5596	–	50
298.15 K, x2 = 0.785	1.15	–
298.15 K, x2 = 0.8016	–	13.45
298.15 K, x2 = 0.8521	–	8.87
298.15 K, x2 = 0.861	2.33	–
298.15 K, x2 = 0.892	2.95	–
298.15 K, x2 = 0.9004	–	5.45
298.15 K, x2 = 0.9254	–	4.05
298.15 K, x2 = 0.929	3.58	–
298.15 K, x2 = 0.9503	–	2.73
298.15 K, x2 = 0.968	3.96	–
299.15 K, x1 = 0.004	1.2	–
299.15 K, x1 = 0.019	3.33	–
299.15 K, x2 = 0.704	0.601	–
299.15 K, x2 = 0.785	1.18	–
299.15 K, x2 = 0.796	1.29	–
299.15 K, x2 = 0.861	2.39	–
299.15 K, x2 = 0.929	3.67	–
299.15 K, x2 = 0.968	4.04	–
300.15 K, x1 = 0.008	2.17	–
300.15 K, x1 = 0.019	3.4	–
300.15 K, x2 = 0.704	0.634	–
300.15 K, x2 = 0.785	1.23	–
300.15 K, x2 = 0.796	1.3	–
300.15 K, x2 = 0.861	2.5	–
300.15 K, x2 = 0.892	3.02	–
300.15 K, x2 = 0.929	3.75	–
300.15 K, x2 = 0.951	4.23	–
300.15 K, x2 = 0.968	4.13	–
301.15 K, x1 = 0.004	1.27	–
301.15 K, x1 = 0.008	2.23	–
301.15 K, x1 = 0.019	3.5	–
301.15 K, x2 = 0.704	0.661	–
301.15 K, x2 = 0.785	1.28	–
301.15 K, x2 = 0.796	1.36	–
301.15 K, x2 = 0.892	3.11	–
301.15 K, x2 = 0.929	3.87	–
301.15 K, x2 = 0.951	4.33	–
301.15 K, x2 = 0.968	4.05	–
302.15 K, x1 = 0.004	1.29	–
302.15 K, x1 = 0.008	2.26	–
302.15 K, x2 = 0.704	0.663	–
302.15 K, x2 = 0.796	1.41	–
302.15 K, x2 = 0.892	3.2	–
302.15 K, x2 = 0.929	3.97	–
302.15 K, x2 = 0.951	4.43	–
302.15 K, x2 = 0.968	4.28	–
303.15 K, x1 = 0.004	1.31	–
303.15 K, x1 = 0.008	2.31	–
303.15 K, x1 = 0.019	3.66	–
303.15 K, x2 = 0.785	1.39	–
303.15 K, x2 = 0.796	1.47	–
303.15 K, x2 = 0.892	3.3	–
303.15 K, x2 = 0.929	4.16	–
303.15 K, x2 = 0.951	4.54	–
303.15 K, x2 = 0.968	4.41	–
304.15 K, x1 = 0.004	1.34	–
304.15 K, x1 = 0.008	2.37	–
304.15 K, x1 = 0.019	3.73	–
304.15 K, x2 = 0.704	0.753	–
304.15 K, x2 = 0.785	1.44	–
304.15 K, x2 = 0.861	2.79	–
304.15 K, x2 = 0.892	3.4	–
304.15 K, x2 = 0.929	4.22	–
304.15 K, x2 = 0.951	4.61	–
304.15 K, x2 = 0.968	4.55	–
305.15 K, x1 = 0.008	2.4	–
305.15 K, x1 = 0.019	3.77	–
305.15 K, x2 = 0.785	1.46	–
305.15 K, x2 = 0.796	1.56	–
305.15 K, x2 = 0.892	3.51	–
305.15 K, x2 = 0.929	4.35	–
305.15 K, x2 = 0.951	4.74	–
305.15 K, x2 = 0.968	4.51	–
306.15 K, x1 = 0.008	2.45	–
306.15 K, x1 = 0.019	3.85	–
306.15 K, x2 = 0.704	0.815	–
306.15 K, x2 = 0.785	1.49	–
306.15 K, x2 = 0.796	1.62	–
306.15 K, x2 = 0.892	3.6	–
306.15 K, x2 = 0.929	4.49	–
306.15 K, x2 = 0.951	5.02	–
306.15 K, x2 = 0.968	4.73	–
307.15 K, x1 = 0.004	1.42	–
307.15 K, x1 = 0.019	4.02	–
307.15 K, x2 = 0.704	0.851	–
307.15 K, x2 = 0.796	1.64	–
307.15 K, x2 = 0.861	3.04	–
307.15 K, x2 = 0.892	3.74	–
307.15 K, x2 = 0.929	4.59	–
307.15 K, x2 = 0.951	4.98	–
307.15 K, x2 = 0.968	4.78	–
308.15 K, x1 = 0.004	1.44	–
308.15 K, x1 = 0.008	2.62	–
308.15 K, x2 = 0.704	0.882	–
308.15 K, x2 = 0.785	1.64	–
308.15 K, x2 = 0.796	1.69	–
308.15 K, x2 = 0.892	3.83	–
308.15 K, x2 = 0.929	4.72	–
308.15 K, x2 = 0.951	5.05	–
309.15 K, x1 = 0.004	1.47	–
309.15 K, x1 = 0.008	2.62	–
309.15 K, x1 = 0.019	4.14	–
309.15 K, x2 = 0.704	0.921	–
309.15 K, x2 = 0.861	3.17	–
309.15 K, x2 = 0.892	3.93	–
309.15 K, x2 = 0.929	4.79	–
309.15 K, x2 = 0.951	5.22	–
310.15 K, x1 = 0.004	1.5	–
310.15 K, x1 = 0.008	2.66	–
310.15 K, x2 = 0.704	0.956	–
310.15 K, x2 = 0.785	1.74	–
310.15 K, x2 = 0.796	1.8	–
310.15 K, x2 = 0.929	4.93	–
310.15 K, x2 = 0.951	5.35	–
311.15 K, x1 = 0.004	1.54	–
311.15 K, x1 = 0.008	2.73	–
311.15 K, x1 = 0.019	4.21	–
311.15 K, x2 = 0.704	0.987	–
311.15 K, x2 = 0.785	1.79	–
311.15 K, x2 = 0.796	1.86	–
311.15 K, x2 = 0.892	4.16	–
311.15 K, x2 = 0.929	5.04	–
311.15 K, x2 = 0.951	5.47	–
311.15 K, x2 = 0.968	5.2	–
312.15 K, x1 = 0.004	1.57	–
312.15 K, x1 = 0.008	2.75	–
312.15 K, x1 = 0.019	4.39	–
312.15 K, x2 = 0.704	1.06	–
312.15 K, x2 = 0.785	1.86	–
312.15 K, x2 = 0.861	3.44	–
312.15 K, x2 = 0.892	4.28	–
312.15 K, x2 = 0.929	5.15	–
312.15 K, x2 = 0.951	5.65	–
312.15 K, x2 = 0.968	5.28	–
313.15 K, x1 = 0.004	1.58	–
313.15 K, x1 = 0.008	2.8	–
313.15 K, x1 = 0.019	4.46	–
